Measurements taken from patent EP4610269A1, “UROKINASE PLASMINOGEN ACTIVATOR SURFACE RECEPTOR (UPAR) LIGANDS FOR DIAGNOSTIC OR THERAPEUTIC USE” (3B Pharmaceuticals GmbH, priority 2024, dated 2025).
Read-outs that look alike come from different tables or passages of the source. *1 amine or outer side, *2 acyl side, *3 side chain or, on linkers, in order; H or OH if unused. Where a SMILES comes first, the peptide text is derived from it. Bridges are numbered along the chain shown (N, C = ends). Side-chain parts run from the residue outwards. [ ]: non-standard residue; d: D form. The star is where a group is joined. X12 = N=c1ccc2c(-c3ccc(C(=O)NCCCOCCOCCOCCCN*)cc3C(=O)O)c3ccc(N)c(S(=O)(=O)O)c3oc-2c1S(=O)(=O)O; DOTA(Lu) = O=C1CN2CCN3CCN(CC(=O)*)CCN(CC2)CC(=O)[O][Lu]([O]1)[O]C(=O)C3; X11 = O=C(CCCC[C@@H]1SC[C@@H]2NC(=O)N[C@@H]21)NCCCOCCOCCOCCCN*; Pro(cis-4-F) = O=C(O)[C@@H]1C[C@H](F)CN1; Dopa = N[C@@H](Cc1ccc(O)c(O)c1)C(=O)O; Hyp = O=C(O)[C@@H]1C[C@@H](O)CN1; X10 = CC(C)C[C@@H](C(=O)*)N(C)C; Cit = NC(=O)NCCC[C@H](N)C(=O)O; Butoxycarbonyl = CCCCOC(=O)*; NMeK = CN[C@@H](CCCCN)C(=O)O; Phg = N[C@H](C(=O)O)c1ccccc1; Suc = O=C(CCC(=O)[*:2])[*:1]; Nva = CCC[C@H](N)C(=O)O; Pentanoyl = CCCCC(=O)*; Ahx = NCCCCCC(=O)O; Sar = CNCC(=O)O

How the values were obtained:
human uPAR (uPAR-Fc) = target: T1, human uPAR (uPAR-Fc) (Homo sapiens, UniProt Q03405); experiment: Surface plasmon resonance (SPR) assay, single cycle kinetics; format: binding
T1 construct: comprising amino acids Leu23-Arg303 according to UniProt entry Q03405.1; purchased R&D Systems 10378-UK-100
T1 sequence (Q03405 23-303): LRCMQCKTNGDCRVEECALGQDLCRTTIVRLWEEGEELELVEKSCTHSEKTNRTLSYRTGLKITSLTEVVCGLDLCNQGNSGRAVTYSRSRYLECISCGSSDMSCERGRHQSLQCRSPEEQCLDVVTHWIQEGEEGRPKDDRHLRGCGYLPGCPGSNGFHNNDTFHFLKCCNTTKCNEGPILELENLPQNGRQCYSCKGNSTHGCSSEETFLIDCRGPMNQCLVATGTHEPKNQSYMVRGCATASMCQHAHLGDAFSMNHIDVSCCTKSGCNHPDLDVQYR
Method: Surface plasmon resonance (SPR) is an optical technique used to measure molecular interactions in real time. SPR occur when plane-polarized light hits a metal film under total internal reflection conditions. SPR signal is directly dependent on the refractive index of the medium on the sensor chip. In an SPR experiment, one molecule (i.e. uPAR) is immobilized on a sensor chip and binding to a second molecule (i.e. test compounds) is measured under flow. The binding of the compound on the surface changes the refractive index. In responses the reflection angle changes as compounds bind and dissociate on the immobilized protein on the surface. This response is measured in resonance units (RU). The RUs are proportional to the number of molecules bound to the surface. […] Kinetic binding constants and equilibrium binding constants can be derived from the sensorgrams.
Surface plasmon resonance (SPR) studies were performed using a Biacore™ T200 or S200 SPR system (Cytiva, formerly GE Life Sciences) to assess binding of compounds to recombinant uPAR protein.
In this example recombinant protein comprising the extracellular domains of human uPAR (uPAR-Fc, R&D Systems, CAT 10378-UK-100, comprising amino acids Leu23-Arg303 according to UniProt entry Q03405.1 and Fc region of human IgG1 at the C-terminus) was immobilized on a Protein A-Chip (Cytiva, CAT 29127555) according to the supplier's instructions. uPAR-Fc was diluted in Running Buffer (10 mM HEPES, 150 mM NaCl, 50 µM EDTA, 0.1% DMSO, 0.05% Tween-20, pH 7.4) to a final concentration of 100 nM and then flushed over the Protein A-Chip to immobilized ~2000 RUs.
Stock solutions of test compounds were prepared by dissolving each compound in DMSO. DMSO stock solution were diluted 1: 1000 in Running Buffer without DMSO. Further sequential dilutions were made with Running Buffer containing 0.1% DMSO. SPR binding analyses were performed in Single Cycle Kinetic (SCK) mode at 25°C. Flow cell without immobilized uPAR-Fc served as reference flow cell. The chip was regenerated with 10 mM Glycine, pH 1,5 to remove the uPAR-Fc from the chip surface after each SCK run. After every three SCK measurements, a blank run with Running Buffer instead of test compound was included to correct for baseline drifts (double reference substraction method). Table 11: SPR protocol steps for SCK with uPAR-Fc immobilized on a Protein A-Chip.
For each test compound, SPR raw data sensorgrams were recorded using the Biacore™ T200 or S200 control software. Sensorgrams were processed and analyzed with the Biacore™ Insight Evaluation software. […] The reference subtracted sensorgram for each test compound was further corrected for baseline drift by subtracting the sensorgram of a reference subtracted blank run (Running Buffer only). The dissociation constant (KD) was calculated from the double reference subtracted sensorgrams using the 1:1 Langmuir binding model. The pKD value (negative decadic logarithm of dissociation constant) was calculated using Microsoft Excel.

[1] = target: T2, uPAR-expressing HEC-265 human endometrial adenocarcinoma cells (Homo sapiens, UniProt Q03405); experiment: Competitive FACS binding assay; conditions: pIC50 category of FACS binding
T2 construct: Cell surface uPAR-expressing HEC-265 human endometrial adenocarcinoma cells; host or cells: HEC-265
T2 sequence (Q03405 23-335): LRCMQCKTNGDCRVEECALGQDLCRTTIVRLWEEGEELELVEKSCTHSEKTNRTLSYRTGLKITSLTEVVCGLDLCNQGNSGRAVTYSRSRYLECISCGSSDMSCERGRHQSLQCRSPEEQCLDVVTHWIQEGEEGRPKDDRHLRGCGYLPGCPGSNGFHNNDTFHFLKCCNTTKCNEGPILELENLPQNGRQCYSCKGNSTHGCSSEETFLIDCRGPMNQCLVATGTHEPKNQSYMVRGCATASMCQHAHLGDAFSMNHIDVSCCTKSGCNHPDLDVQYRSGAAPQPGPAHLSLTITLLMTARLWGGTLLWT
Method: In order to determine binding of compounds according to the present invention to uPAR-expressing cells, a competitive FACS binding assay was established.
Cell surface uPAR-expressing HEC-265 human endometrial adenocarcinoma cells (Japanese Collection of Research Bioresources, #JCRB1142) were cultured in MEM Eagle with stable glutamine (Pan Biotech, #P04-09500) including 15% fetal bovine serum (Pan Biotech, #P30-3306) and 100 U/ml penicillin and 100 µg/mL streptomycin (Pan Biotech, #P06-07100). Cells were detached with Cell Dissociation Buffer (Thermo Scientific, #13151014) and washed in FACS buffer (PBS (Pan Biotech, #P04-36500) including 1% BSA (SeraCare, #AP-4510-80). Cells were diluted in FACS buffer to a final concentration of 500.000 cells per ml and 200 µl of the cell suspension are transferred to a u-shaped non-binding 96-well plate (Greiner Bio-One, #650901).
For IC50 determination, cells were incubated with 10 nM Bio--Ttds--Ttds--Ttds--Ttds-D-Cha-FsrYLWS-NH2) in the presence of increasing concentrations of non-labeled test compounds at 4°C for 1 hour. Cells were washed twice in FACS buffer. An additional incubation step with 1 µg/mL APC-Streptavidin (Miltenyi; #130-106-791) in 50 µL FACS buffer for 30 minutes on ice was performed followed by two washes with FACS buffer. Cells were resuspended in 200 µl FACS buffer and analyzed in an Attune NxT flow cytometer. Median fluorescence intensities (APC channel) were calculated by Attune NxT software and plotted against peptide concentrations. Four parameter logistic (4PL) curve fitting and pIC50 calculations were performed using ActivityBase software.

[2] = pKD category for uPAR SPR activity assay, uPAR-Fc on Protein A-Chip, single cycle kinetics, 25°C, read-out: pKD CAT (converted)

| Kd (human uPAR (uPAR-Fc); [2]) [nM] | pIC50 CAT [1] | Molecule | other results |
| --- | --- | --- | --- |
| 1.58 to 10 | – | CCC[C@@H]1NC(=O)[C@H]([C@@H](C)CC)NC(=O)[C@@H]2C[C@@H](O)CN2C(=O)[C@@H]2CCCN2C(=O)[C@H](Cc2ccccc2)NC(=O)[C@H](Cc2ccc(O)cc2)NC(=O)[C@H](CCC(N)=O)NC(=O)[C@H](CCCNC(=N)N)NC(=O)[C@@H](NC(=O)[C@H](CC(C)C)N(C)C)CSSC[C@@H](C(N)=O)NC1=O [UPAR-487, Me-Nml-[Cys-Arg-Gln-Tyr-Phe-Pro-Hyp-Ile-Nva-Cys]-NH2] (X10-CRQYFP[Hyp]I[Nva]C-NH2; disulfide 1-10) | – |
| – | A (pIC50 values ≥8.0) | LuDOTA-Ahx-Leu-[Cys-Arg-Gln-Tyr-Phe-Pro-ala-Ile-Leu-Cys]-NH2 ({DOTA(Lu)}-[Ahx]LCRQYFP[dA]ILC-NH2; disulfide 3-12; not fully specified; printed as LuDOTA-Ahx-Leu-[Cys-Arg-Gln-Tyr-Phe-Pro-ala-Ile-Leu-Cys]-NH₂; also: Lu(III) complexed by DOTA) [UPAR-170] | – |
| < 1.58 | – | CCC[C@@H]1NC(=O)[C@H]([C@@H](C)CC)NC(=O)[C@@H]2C[C@@H](O)CN2C(=O)[C@@H]2CCCN2C(=O)[C@H](Cc2ccccc2)NC(=O)[C@H](Cc2ccc(O)cc2)NC(=O)[C@H](CCC(N)=O)NC(=O)[C@H](CCCNC(=N)N)NC(=O)[C@@H](NC(=O)[C@@H](NC(C)=O)c2ccccc2)CSSC[C@@H](C(N)=O)NC1=O [UPAR-486, Ac-Phg-[Cys-Arg-Gln-Tyr-Phe-Pro-Hyp-Ile-Nva-Cys]-NH2] (Ac-[Phg]CRQYFP[Hyp]I[Nva]C-NH2; disulfide 2-11) | – |

Continued, molecule first:

| Molecule | Kd (human uPAR (uPAR-Fc); [2]) [nM] | pIC50 CAT [1] | other results |
| --- | --- | --- | --- |
| Pent-[Cys-Cit-Lys(LuDOTA)-Tyr-Phe-Pro-Nmg-Ile-Nva-Cys]-NH2 (Pentanoyl-C[Cit]K(DOTA(Lu))YFP[Sar]I[Nva]C-NH2; disulfide 1-10; not fully specified; also: Lu(III) complexed by DOTA) [UPAR-348] | – | A (pIC50 values ≥8.0) | – |
| CCCCOC(=O)N[C@H]1CSSC[C@@H](C(N)=O)NC(=O)[C@H](CCC)NC(=O)[C@H]([C@@H](C)CC)NC(=O)[C@@H]2C[C@@H](O)CN2C(=O)[C@@H]2C[C@H](F)CN2C(=O)[C@H](Cc2ccccc2)NC(=O)[C@H](Cc2ccc(O)c(O)c2)NC(=O)[C@H](CCCCNC(=O)CCC(=O)NCCCOCCOCCOCCCNC(=O)c2ccc(-c3c4ccc(=N)c(S(=O)(=O)O)c-4oc4c(S(=O)(=O)O)c(N)ccc34)c(C(=O)O)c2)NC(=O)[C@H]([C@@H](C)O)NC1=O [UPAR-479, Butoc-[Cys-Thr-Lys(AF488-Ttds)-Dopa-Phe-4Cfp-Hyp-Ile-Nva-Cys]-NH2] (Butoxycarbonyl-CTK([Suc-X12])[Dopa]F[Pro(cis-4-F)][Hyp]I[Nva]C-NH2; disulfide 1-10) | – | – | Kd (human uPAR (uPAR-Fc)): < 1.58 nM |
| CCCCC(=O)N[C@H]1CSSC[C@@H](C(N)=O)NC(=O)[C@H](CCC)NC(=O)[C@H]([C@@H](C)CC)NC(=O)[C@H](CCCCN)N(C)C(=O)[C@@H]2CCCN2C(=O)[C@H](Cc2ccccc2)NC(=O)[C@H](Cc2ccc(O)cc2)NC(=O)[C@H](CCCCNC(=O)CCC(=O)NCCCOCCOCCOCCCNC(=O)CCCC[C@@H]2SC[C@@H]3NC(=O)N[C@@H]32)NC(=O)[C@H](CCCNC(N)=O)NC1=O [UPAR-317, Pent-[Cys-Cit-Lys(Bio-Ttds)-Tyr-Phe-Pro-Nmk-Ile-Nva-Cys]-NH2] (Pentanoyl-C[Cit]K([Suc-X11])YFP[NMeK]I[Nva]C-NH2; disulfide 1-10) | – | – | Kd (human uPAR (uPAR-Fc); pKD category for uPAR SPR activity assay, uPAR-Fc on Protein A-Chip, 25°C, read-out: pKD CAT (converted)): 10 to 100 nM |
